Measurements reported in paper PMC5218480 (PLoS ONE, 2017).

Tested on: MV-4-11 cells
Assay: Gene expression microarray analysis (Affymetrix PrimeView) and GSEA
Assay type: cell-based, human
Set-up: RFU PODN (11730768_x_at) / Fold change /veh PODN (11730768_x_at) / RFU LINC00158 (11744669_a_at) / Fold change /veh LINC00158 (11744669_a_at) / RFU DUSP10 (11751237_a_at) / Fold change /veh DUSP10 (11751237_a_at) / RFU ID3 (11757404_x_at) / Fold change /veh ID3 (11757404_x_at) / RFU PLEKHG5 (11737974_s_at) / Fold change /veh PLEKHG5 (11737974_s_at) / RFU LRRC4B (11730491_at) / Fold change /veh LRRC4B (11730491_at) / RFU GIMAP4 (11747438_a_at) / Fold change /veh GIMAP4 (11747438_a_at) / RFU KRT8 (11758183_x_at) / Fold change /veh KRT8 (11758183_x_at) / RFU CNN1 (11734310_a_at) / Fold change /veh CNN1 (11734310_a_at) / RFU VPS37D (11726825_at) / Fold change /veh VPS37D (11726825_at) / RFU C10orf10 (11716522_x_at) / Fold change /veh C10orf10 (11716522_x_at) / RFU KIR2DL2 /// KIR2DL4 /// KIR2DL5A /// KIR2DL5B /// KIR2DS1 /// KIR2DS2 /// KIR2DS3 /// KIR2DS4 /// KIR3DL3 /// KIR3DL3 /// KIR3DS1 (11738374_at) / Fold change /veh KIR2DL2 /// KIR2DL4 /// KIR2DL5A /// KIR2DL5B /// KIR2DS1 /// KIR2DS2 /// KIR2DS3 /// KIR2DS4 /// KIR3DL3 /// KIR3DL3 /// KIR3DS1 (11738374_at) / RFU C1QL1 (11718748_at) / Fold change /veh C1QL1 (11718748_at) / RFU TMPRSS4 (11747572_a_at) / Fold change /veh TMPRSS4 (11747572_a_at) / RFU HAMP (11756126_x_at) / Fold change /veh HAMP (11756126_x_at) / RFU RNFT2 (11725882_a_at) / Fold change /veh RNFT2 (11725882_a_at) / RFU NR4A2 (11747474_a_at) / Fold change /veh NR4A2 (11747474_a_at) / RFU ABCC12 (11746883_a_at) / Fold change /veh ABCC12 (11746883_a_at) / RFU TMEM136 (11760407_x_at) / Fold change /veh TMEM136 (11760407_x_at) / RFU CLDN22 /// WWC2 (11732394_at) / Fold change /veh CLDN22 /// WWC2 (11732394_at) / RFU HLA-DPB1 (11760878_x_at) / Fold change /veh HLA-DPB1 (11760878_x_at) / RFU SPINT1 (11716480_a_at) / Fold change /veh SPINT1 (11716480_a_at) / RFU GAP43 (11754022_s_at) / Fold change /veh GAP43 (11754022_s_at) / RFU A4GNT (11735810_at) / Fold change /veh A4GNT (11735810_at) / RFU PRB3 (11715151_x_at) / Fold change /veh PRB3 (11715151_x_at) / RFU TUBB4B (11761932_at) / Fold change /veh TUBB4B (11761932_at) / RFU CAPN14 (11732068_a_at) / Fold change /veh CAPN14 (11732068_a_at) / RFU TMCC2 (11721928_a_at) / Fold change /veh TMCC2 (11721928_a_at) / RFU IRGQ (11745062_a_at) / Fold change /veh IRGQ (11745062_a_at) / RFU FAM174B (11720279_a_at) / Fold change /veh FAM174B (11720279_a_at) / RFU TMPRSS4 (11748680_a_at) / Fold change /veh TMPRSS4 (11748680_a_at) / RFU FAM212B (11763350_a_at) / Fold change /veh FAM212B (11763350_a_at) / RFU PLEKHG5 (11743358_a_at) / Fold change /veh PLEKHG5 (11743358_a_at) / RFU ZSCAN30 (11745921_a_at) / Fold change /veh ZSCAN30 (11745921_a_at) / RFU CMKLR1 (11741424_a_at) / Fold change /veh CMKLR1 (11741424_a_at) / RFU LOC101060620 /// MAPK8IP1 (11723275_at) / Fold change /veh LOC101060620 /// MAPK8IP1 (11723275_at) / RFU SPTSSB (11747773_x_at) / Fold change /veh SPTSSB (11747773_x_at) / RFU PRSS12 (11739890_at) / Fold change /veh PRSS12 (11739890_at) / RFU BIN1 (11741810_x_at) / Fold change /veh BIN1 (11741810_x_at) / RFU WNT11 (11732464_a_at) / Fold change /veh WNT11 (11732464_a_at) / RFU C10orf10 (11716521_a_at) / Fold change /veh C10orf10 (11716521_a_at) / RFU C5orf56 (11738089_at) / Fold change /veh C5orf56 (11738089_at) / RFU CYB561 (11721691_x_at) / Fold change /veh CYB561 (11721691_x_at) / RFU ANKRD19P (11752326_a_at) / Fold change /veh ANKRD19P (11752326_a_at) / RFU OR2T12 /// OR2T33 /// OR2T8 (11738714_s_at) / Fold change /veh OR2T12 /// OR2T33 /// OR2T8 (11738714_s_at) / RFU VCAN (11748164_a_at) / Fold change /veh VCAN (11748164_a_at) / RFU JSRP1 (11732532_at) / Fold change /veh JSRP1 (11732532_at) / RFU KRTAP10-11 (11738290_x_at) / Fold change /veh KRTAP10-11 (11738290_x_at) / RFU MYO3A (11730013_a_at) / Fold change /veh MYO3A (11730013_a_at) / RFU EBF3 (11725865_a_at) / Fold change /veh EBF3 (11725865_a_at) / RFU CAMK2N1 (11719241_x_at) / Fold change /veh CAMK2N1 (11719241_x_at) / RFU C5orf56 (11738088_a_at) / Fold change /veh C5orf56 (11738088_a_at) / RFU OLFML3 (11715873_a_at) / Fold change /veh OLFML3 (11715873_a_at) / RFU LOC100653217 /// NTM (11731650_a_at) / Fold change /veh LOC100653217 /// NTM (11731650_a_at) / RFU MAPK11 (11762145_a_at) / Fold change /veh MAPK11 (11762145_a_at) / RFU FIZ1 (11724087_x_at) / Fold change /veh FIZ1 (11724087_x_at) / RFU OASL (11726364_x_at) / Fold change /veh OASL (11726364_x_at) / RFU SOX15 (11748057_x_at) / Fold change /veh SOX15 (11748057_x_at) / RFU CD79A (11719716_a_at) / Fold change /veh CD79A (11719716_a_at) / RFU HIST1H1D (11736915_at) / Fold change /veh HIST1H1D (11736915_at) / RFU CASKIN2 (11723855_a_at) / Fold change /veh CASKIN2 (11723855_a_at) / RFU LOC730098 (11760151_x_at) / Fold change /veh LOC730098 (11760151_x_at) / RFU OR4N2 (11742367_at) / Fold change /veh OR4N2 (11742367_at) / RFU PRRT2 (11749266_a_at) / Fold change /veh PRRT2 (11749266_a_at) / RFU SNX32 (11753110_a_at) / Fold change /veh SNX32 (11753110_a_at) / RFU CDHR5 (11726645_a_at) / Fold change /veh CDHR5 (11726645_a_at) / RFU RCAN1 (11760418_a_at) / Fold change /veh RCAN1 (11760418_a_at) / RFU FAM167A (11723789_a_at) / Fold change /veh FAM167A (11723789_a_at) / RFU FAM26E (11764081_at) / Fold change /veh FAM26E (11764081_at) / RFU ISYNA1 (11749810_s_at) / Fold change /veh ISYNA1 (11749810_s_at) / RFU ACY1 (11761880_at) / Fold change /veh ACY1 (11761880_at) / RFU 11764098_at / Fold change /veh 11764098_at / RFU SAMD14 (11745864_x_at) / Fold change /veh SAMD14 (11745864_x_at) / RFU NPB (11741838_a_at) / Fold change /veh NPB (11741838_a_at) / RFU TMPRSS6 (11731388_a_at) / Fold change /veh TMPRSS6 (11731388_a_at) / RFU KRTAP10-2 (11738614_at) / Fold change /veh KRTAP10-2 (11738614_at) / RFU ARHGAP8 /// PRR5-ARHGAP8 (11727945_x_at) / Fold change /veh ARHGAP8 /// PRR5-ARHGAP8 (11727945_x_at) / RFU KRTAP5-7 /// NADSYN1 (11734609_at) / Fold change /veh KRTAP5-7 /// NADSYN1 (11734609_at) / RFU RASL12 (11751679_a_at) / Fold change /veh RASL12 (11751679_a_at) / RFU CDKN2B (11736163_a_at) / Fold change /veh CDKN2B (11736163_a_at) / RFU PRF1 (11729649_at) / Fold change /veh PRF1 (11729649_at) / RFU, ZNF638 /// ZNF638-IT1 / Fold change vs veh, ZNF638 /// ZNF638-IT1 / RFU, PANK3 / Fold change vs veh, PANK3 / RFU, SH3YL1 / Fold change vs veh, SH3YL1 / RFU, ZEB2 / Fold change vs veh, ZEB2 / RFU, NRIP1 / Fold change vs veh, NRIP1 / RFU, PTTG1IP / Fold change vs veh, PTTG1IP / RFU, CAPN2 / Fold change vs veh, CAPN2 / RFU, MED14 / Fold change vs veh, MED14 / RFU, SNORA58 / Fold change vs veh, SNORA58 / RFU, C1orf63 / Fold change vs veh, C1orf63 / RFU, LRRFIP1 / Fold change vs veh, LRRFIP1 / RFU, NDUFAF7 / Fold change vs veh, NDUFAF7 / RFU, SLC12A2 / Fold change vs veh, SLC12A2 / RFU, IBTK / Fold change vs veh, IBTK / RFU, ESF1 / Fold change vs veh, ESF1 / Fold change vs veh, TMEM50B / RFU, TAOK1 / Fold change vs veh, TAOK1 / RFU, ACBD3 / Fold change vs veh, ACBD3 / RFU, TMA16 / Fold change vs veh, TMA16 / RFU, RWDD3 / Fold change vs veh, RWDD3 / RFU, BCAT1 / Fold change vs veh, BCAT1 / RFU, EDEM3 / Fold change vs veh, EDEM3 / RFU, TMEM33 / Fold change vs veh, TMEM33 / RFU, WDR75 / Fold change vs veh, WDR75 / RFU, AHCTF1 / Fold change vs veh, AHCTF1 / RFU, TFRC / Fold change vs veh, TFRC / RFU, ZDHHC17 / Fold change vs veh, ZDHHC17 / RFU, NOM1 / Fold change vs veh, NOM1 / RFU, ARL8B / Fold change vs veh, ARL8B / RFU, ZBTB11 / Fold change vs veh, ZBTB11 / RFU, TAMM41 / Fold change vs veh, TAMM41 / RFU, KIAA1704 /// LOC100996395 / Fold change vs veh, KIAA1704 /// LOC100996395 / RFU, ING1 / Fold change vs veh, ING1 / RFU, TRMT61B / Fold change vs veh, TRMT61B / RFU, FUBP3 / Fold change vs veh, FUBP3 / RFU, TP53 / Fold change vs veh, TP53 / RFU, TNKS2 / Fold change vs veh, TNKS2 / RFU, ZFP14 / Fold change vs veh, ZFP14 / RFU, ACTR2 / Fold change vs veh, ACTR2 / RFU, PPP3R1 / Fold change vs veh, PPP3R1 / RFU, PIK3R1 / Fold change vs veh, PIK3R1 / RFU, HNRNPA1 / Fold change vs veh, HNRNPA1 / RFU, RNF170 / Fold change vs veh, RNF170 / RFU, ZNF28 / Fold change vs veh, ZNF28 / RFU, RNGTT / Fold change vs veh, RNGTT / RFU, OGT / Fold change vs veh, OGT / RFU, BRD1 / Fold change vs veh, BRD1 / RFU, MARS / Fold change vs veh, MARS / RFU, ZNF655 / Fold change vs veh, ZNF655 / RFU, FAHD1 / Fold change vs veh, FAHD1 / RFU, BDP1 / Fold change vs veh, BDP1 / RFU, LRRCC1 / Fold change vs veh, LRRCC1 / RFU, ARID1A / Fold change vs veh, ARID1A / RFU, ZNF146 / Fold change vs veh, ZNF146 / RFU, ZNF330 / Fold change vs veh, ZNF330 / RFU, GPN3 / Fold change vs veh, GPN3 / RFU, C9orf123 / Fold change vs veh, C9orf123 / RFU, N4BP2L2 / Fold change vs veh, N4BP2L2 / RFU, ARFIP1 / Fold change vs veh, ARFIP1 / RFU, FAM179B / Fold change vs veh, FAM179B / RFU, BCL10 / Fold change vs veh, BCL10 / RFU, UHRF1BP1L / Fold change vs veh, UHRF1BP1L / RFU, BET1 / Fold change vs veh, BET1 / RFU, CNOT2 / Fold change vs veh, CNOT2 / RFU, ZNF268 / Fold change vs veh, ZNF268 / Fold change vs veh, ZNF507 / RFU, DGCR2 / Fold change vs veh, DGCR2 / RFU, WDSUB1 / Fold change vs veh, WDSUB1 / Fold change vs veh, HSP90B1 /// MIR3652 / RFU, ADSS / Fold change vs veh, ADSS / RFU, GK / Fold change vs veh, GK / RFU, ZNF148 / Fold change vs veh, ZNF148 / RFU, TAF9 / Fold change vs veh, TAF9 / RFU, SLC1A5 / Fold change vs veh, SLC1A5 / RFU, SLMO2 / Fold change vs veh, SLMO2 / RFU, ABCC4 / Fold change vs veh, ABCC4 / RFU, LOC101060439 /// RAP1B / Fold change vs veh, LOC101060439 /// RAP1B / RFU, RFX7 / Fold change vs veh, RFX7 / RFU, GTPBP10 / Fold change vs veh, GTPBP10 / RFU, CNEP1R1 / Fold change vs veh, CNEP1R1 / RFU, BIVM-ERCC5 /// ERCC5 / Fold change vs veh, BIVM-ERCC5 /// ERCC5 / RFU, ILF3 / Fold change vs veh, ILF3 / RFU 11762660_at / Fold change /veh 11762660_at / RFU VCAN (11757783_s_at) / Fold change /veh VCAN (11757783_s_at) / RFU DDX43 (11728927_at) / Fold change /veh DDX43 (11728927_at) / RFU KRT8 (11758188_x_at) / Fold change /veh KRT8 (11758188_x_at) / RFU NKD1 (11759106_at) / Fold change /veh NKD1 (11759106_at) / RFU SRD5A1 (11742802_a_at) / Fold change /veh SRD5A1 (11742802_a_at) / RFU TPSAB1 /// TPSB2 (11721975_s_at) / Fold change /veh TPSAB1 /// TPSB2 (11721975_s_at) / RFU GSTM3 (11746129_a_at) / Fold change /veh GSTM3 (11746129_a_at) / RFU IL23R (11737362_x_at) / Fold change /veh IL23R (11737362_x_at) / RFU TMEM51 (11727254_a_at) / Fold change /veh TMEM51 (11727254_a_at) / RFU PIWIL2 (11732686_x_at) / Fold change /veh PIWIL2 (11732686_x_at) / RFU ORM1 (11744905_x_at) / Fold change /veh ORM1 (11744905_x_at) / RFU CCDC152 (11743942_at) / Fold change /veh CCDC152 (11743942_at) / RFU ECM1 (11717891_a_at) / Fold change /veh ECM1 (11717891_a_at) / RFU IL23R (11748794_a_at) / Fold change /veh IL23R (11748794_a_at) / RFU TNFAIP8L3 (11732012_x_at) / Fold change /veh TNFAIP8L3 (11732012_x_at) / RFU MBOAT4 (11741988_at) / Fold change /veh MBOAT4 (11741988_at) / RFU 11764193_at / Fold change /veh 11764193_at / RFU TMEM53 (11763286_at) / Fold change /veh TMEM53 (11763286_at) / RFU MAGEB2 (11727129_at) / Fold change /veh MAGEB2 (11727129_at) / RFU TMEM200A (11744735_a_at) / Fold change /veh TMEM200A (11744735_a_at) / RFU CCDC152 (11751479_a_at) / Fold change /veh CCDC152 (11751479_a_at) / RFU FAM211A (11726209_a_at) / Fold change /veh FAM211A (11726209_a_at) / RFU RGS16 (11746705_a_at) / Fold change /veh RGS16 (11746705_a_at) / RFU VCAN (11755009_s_at) / Fold change /veh VCAN (11755009_s_at) / RFU RHOB (11743442_s_at) / Fold change /veh RHOB (11743442_s_at) / RFU RGS16 (11720943_a_at) / Fold change /veh RGS16 (11720943_a_at) / RFU RGS16 (11720944_at) / Fold change /veh RGS16 (11720944_at) / RFU, VPS4B / Fold change vs veh, VPS4B / RFU, CREB1 / Fold change vs veh, CREB1 / RFU, DNAJC13 / Fold change vs veh, DNAJC13 / RFU, GNAQ / Fold change vs veh, GNAQ / RFU, CDK5R1 / Fold change vs veh, CDK5R1 / RFU, ZRANB3 / Fold change vs veh, ZRANB3 / RFU, CUL4A / Fold change vs veh, CUL4A / RFU, CCNY / Fold change vs veh, CCNY / RFU, UFL1 / Fold change vs veh, UFL1 / RFU, COG3 / Fold change vs veh, COG3 / RFU, DIAPH2 / Fold change vs veh, DIAPH2 / RFU, SKA2 / Fold change vs veh, SKA2 / RFU, AFF3 / Fold change vs veh, AFF3 / RFU, LMF1 / Fold change vs veh, LMF1 / RFU, IPO11 / Fold change vs veh, IPO11 / RFU, DFFB / Fold change vs veh, DFFB / RFU, FOXP1 / Fold change vs veh, FOXP1 / RFU, CARD8 / Fold change vs veh, CARD8 / RFU, STRN3 / Fold change vs veh, STRN3 / RFU, ADK / Fold change vs veh, ADK / RFU, RASSF2 / Fold change vs veh, RASSF2 / RFU, WIPF1 / Fold change vs veh, WIPF1 / RFU, LARP1B / Fold change vs veh, LARP1B / RFU, RASA1 / Fold change vs veh, RASA1 / RFU, RB1 / Fold change vs veh, RB1 / RFU, PPFIA1 / Fold change vs veh, PPFIA1 / RFU, MAT2A / Fold change vs veh, MAT2A / RFU, CCT5 / Fold change vs veh, CCT5 / RFU, WDR92 / Fold change vs veh, WDR92 / RFU, CUX1 / Fold change vs veh, CUX1 / RFU, TTC7A / Fold change vs veh, TTC7A / RFU, TMEM135 / Fold change vs veh, TMEM135 / RFU, DEPTOR / Fold change vs veh, DEPTOR / RFU, CPM / Fold change vs veh, CPM / RFU, DNAJB6 / Fold change vs veh, DNAJB6 / RFU, CACNA2D3 / Fold change vs veh, CACNA2D3 / RFU, DTX4 / Fold change vs veh, DTX4 / RFU, TFCP2 / Fold change vs veh, TFCP2 / RFU, GMCL1 /// GMCL1P1 / Fold change vs veh, GMCL1 /// GMCL1P1 / RFU, AEBP2 / Fold change vs veh, AEBP2 / RFU, SNHG1 /// SNORD22 /// SNORD25 /// SNORD26 /// SNORD27 /// SNORD28 /// SNORD29 /// SNORD31 / Fold change vs veh, SNHG1 /// SNORD22 /// SNORD25 /// SNORD26 /// SNORD27 /// SNORD28 /// SNORD29 /// SNORD31 / Fold change (Aza/veh), C12orf56 (ProbeSet 11735607_a_at) / Fold change (ACY-1035/veh), C12orf56 (ProbeSet 11735607_a_at) / Fold change (Aza/veh), FGFR1OP (ProbeSet 11751329_s_at) / Fold change (ACY-1035/veh), FGFR1OP (ProbeSet 11751329_s_at) / Fold change (Aza/veh), VPS36 (ProbeSet 11739960_a_at) / Fold change (ACY-1035/veh), VPS36 (ProbeSet 11739960_a_at) / RFU SYPL1 (11715823_x_at) / Fold change /veh SYPL1 (11715823_x_at) / RFU IGFBP7 (11715501_s_at) / Fold change /veh IGFBP7 (11715501_s_at) / RFU REEP3 (11722064_at) / Fold change /veh REEP3 (11722064_at) / RFU IGLL1 (11728026_x_at) / Fold change /veh IGLL1 (11728026_x_at): dose or concentration left out as unconfirmed
Conditions: ProbeSet 11717702_a_at; LIST D

Nc1ccc(-c2cccs2)cc1NC(=O)c1ccc2c(c1)cc(C1CC1)n2CCN1CCOCC1 [ACY-1035]
RFU, RB1: 245.16 RFU
